From patent US20140088144A1, “INHIBITING MICROBIAL INFECTIONS” (THE UNIVERSITY OF KANSAS, priority 2012, published 2014)

Columns and labels:
VirF = VirF (Shigella flexneri, UniProt P0A2T1); assay: % Inhibition at 82.5 μM, VirF; assay type: cell-based; settings: for inhibition at 82.5 µM: read-out: % Inhibition at 82.5 μM VirF, 82.5 μM
Rns = Rns (Escherichia coli, UniProt P16114); assay: % Inhibition at 82.5 μM, Rns; assay type: cell-based, Enterotoxigenic E. coli; settings: for inhibition at 82.5 µM: read-out: % Inhibition at 82.5 μM Rns
RhaS [1] = molecular target: T1, RhaS (Escherichia coli, UniProt P09377); assay: % Inhibition at 82.5 μM, RhaS; assay type: cell-based, E. coli
RhaS [2] = molecular target: T1, RhaS; assay: In vivo dose-response, RhaS-activated rhaB-lacZ reporter fusion (β-galactosidase); assay type: cell-based, E. coli; settings: full-length RhaS, rhaB-lacZ
Source text: For dose-response studies, a rhaB-lacZ reporter strain was designed that allowed IPTG induction of RhaS or RhaS(163-278) expression from pHG165 (and thus rhaB-lacZ expression). The strain was constructed by introducing malP::lacIq into SME3000 via phage P1vir-mediated generalized transduction. First, SME3000 was transduced with Δcrp-3 zhc-511::Tn10 from SME1403, selecting for tetracycline resistance and screening for sorbitol deficiency (indicating Δcrp) using MacConkey sorbitol. SME3000 Acrp-3 zhc-511::Tn10 was transduced with crp^+ malP::lacI^q from SG22166, selecting for growth on minimal sorbitol and screening for maltose deficiency (indicating malP::lacI^q) using MacConkey maltose. Finally, SME3000 malP::lacI^q zhc-511::Tn10 was transduced with recA::cat from SME1048 by selecting for chloramphenicol resistance, to make strain SME3632.
(§1) The top hit identified in the screen was 1-ethyl-4-(nitromethyl)-3-quinolin-2-yl-4H-quinoline, Compound 2. The closely related compound, Compound 1,1-butyl-4-(nitromethyl)-3-quinolin-2-yl-4H-quinoline, was obtained from eMolecules, Inc. (Solana Beach, Calif.; catalog #3761-0013) or Princeton BioMolecular Research (Princeton, N.J.; catalog #OSSL—051168), with the Princeton named used here. […] Lysis/ONPG buffer (50 μL, as in Primary Screen) was added to each well and the plate was immediately placed into a PowerWave XS plate reader (BioTek Instruments, Inc., Winooski, Vt.), set to read the OD420 of each well every 15 min for 4 hr. […] Due to differences in kinetics of lacZ reporter expression, the rhaB-lacZ strains were analyzed at 4 hours and the hts-lacZ strain was analyzed at 1 hr. Percent activity was calculated for each condition as described above, using the single time point with appropriate OD420 levels for each strain. […] IC50 and maximal inhibition values were calculated using the XLfit add-in for Microsoft Excel (ID Business Solutions, Guildford, UK), and graphs were drawn using Prism (GraphPad, La Jolla, Calif.).

[3] = tested on: LacI-repressed hts-lacZ fusion; assay: LacI-repressed hts-lacZ control reporter fusion (β-galactosidase); assay type: cell-based, E. coli; settings: hts-lacZ control (SME3359)
Source text: The control strain for the secondary high-throughput screen and subsequent experiments was SME3359, and carries the LacI-repressed fusion and LacI-expressing pHG165lacI. The fusion consists of lacZ under the control of an artificial promoter (Phts) with an induced expression level similar to that of the induced rhaBAD operon. Phts is regulated by Lad and induced with IPTG. The Phts core promoter elements include a near-consensus −35 sequence and a −10 sequence followed by a lacO1 operator sequence that overlaps the transcription start site with the same spacing as lacO1 at lacZYA. To construct the upstream half of Phts, oligo 2829 was annealed to oligo 2788 and the primers were extended using the Expand High Fidelity PCR System (Roche Applied Science, Indianapolis, Ind.). The downstream half of the Phts promoter was constructed by similarly annealing and extending oligos 2789 and 2790.
as §1, with “2.” for “2. The closely related compound, Compound 1,1-butyl-4-(nitromethyl)-3-quinolin-2-yl-4H-quinoline, was obtained from eMolecules, Inc. (Solana Beach, Calif.; catalog #3761-0013) or Princeton BioMolecular Research (Princeton, N.J.; catalog #OSSL—051168), with the Princeton named used here.”
In vivo dose-response assays were performed using a procedure described previously. […] Bacterial cultures were mixed with varying concentrations of SE-1 (2.2% DMSO, final), induced with 6.5 mM IPTG for 3 h at 37° C., lysed and β-galactosidase activity was measured. […] IC50 values were calculated and graphs were drawn using Prism (GraphPad, La Jolla, Calif.).

T1 sequence (P09377 whole entry, the tested form may be a part): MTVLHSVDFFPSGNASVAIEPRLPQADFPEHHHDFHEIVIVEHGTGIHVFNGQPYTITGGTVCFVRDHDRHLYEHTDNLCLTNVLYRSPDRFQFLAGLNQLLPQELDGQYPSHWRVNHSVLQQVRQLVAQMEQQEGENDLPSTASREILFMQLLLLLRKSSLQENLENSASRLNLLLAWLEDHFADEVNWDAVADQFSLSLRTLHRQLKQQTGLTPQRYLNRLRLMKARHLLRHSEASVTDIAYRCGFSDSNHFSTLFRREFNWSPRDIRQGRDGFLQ
VirF, sequence (P0A2T1 whole entry): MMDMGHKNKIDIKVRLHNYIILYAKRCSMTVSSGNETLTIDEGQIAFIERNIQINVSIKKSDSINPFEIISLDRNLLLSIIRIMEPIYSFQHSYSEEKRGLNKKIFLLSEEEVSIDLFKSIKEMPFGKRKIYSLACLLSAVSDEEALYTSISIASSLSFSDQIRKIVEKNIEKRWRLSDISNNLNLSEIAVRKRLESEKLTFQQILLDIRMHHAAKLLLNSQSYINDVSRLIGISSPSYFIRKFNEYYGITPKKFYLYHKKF
Rns, sequence (P16114 whole entry): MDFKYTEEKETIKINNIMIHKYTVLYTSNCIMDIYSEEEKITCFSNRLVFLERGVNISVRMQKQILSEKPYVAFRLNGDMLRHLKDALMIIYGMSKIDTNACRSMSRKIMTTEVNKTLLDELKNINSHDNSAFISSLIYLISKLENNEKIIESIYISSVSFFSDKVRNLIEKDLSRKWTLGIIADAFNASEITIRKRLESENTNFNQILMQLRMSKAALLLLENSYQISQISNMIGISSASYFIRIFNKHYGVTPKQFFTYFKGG

SMILES | inhibition at 82.5 µM (VirF) | inhibition at 82.5 µM (Rns) | inhibition at 82.5 µM (RhaS [1]) | inhibition of the RhaS-activated fusion (RhaS [2]) | inhibition of the LacI-repressed fusion [3] | % Inhibition at 82.5 μM VirF (VirF; 82.5 μM) | % Inhibition at 82.5 μM Rns (Rns; 82.5 μM) | % Inhibition at 82.5 μM RhaS (RhaS [1])
Clc1ccc(C[n+]2cc(-c3ccc4ccccc4n3)cc3ccccc32)cc1 [Compound I03] | 60% | 50% | 60% |  |  |  |  | 
C[n+]1sc(Nc2ccccc2)nc1-c1ccccc1 [JS01] | 100% | 100% | 100% |  |  |  |  | 
CCCC[n+]1cc(-c2ccc3ccccc3n2)cc2ccccc21 [Compound I02] | 90% | 90% | 90% |  |  |  |  | 
CCCCN1C=C(c2cccc(C)n2)C(C[N+](=O)[O-])c2ccccc21 (centres unmarked) [Compound A09] | 10% | 0% | 50% |  |  |  |  | 
CCCC[n+]1cc(-c2ccc3ccccc3c2)cc2ccccc21 [Compound I14] | 100% | 100% | 90% |  |  |  |  | 
CN1C=C(c2ccc3ccccc3n2)C(c2c(-c3ccccc3)[nH]c3ccccc23)c2ccccc21 (centres unmarked) [Compound D2] | 40% | 10% | 10% |  |  |  |  | 
CCN1C=C(c2ccc3ccccc3n2)C(C#N)c2ccccc21 (centres unmarked) [Compound A1] | 20% | 30% | 30% |  |  |  |  | 
C[n+]1cc(-c2ccc3ccccc3n2)cc2ccccc21 [Compound A24] | 100% | 90% | 94% |  |  |  |  | 
CCC[n+]1cc(-c2ccc3ccccc3n2)cc2ccccc21 [Compound I11] | 100% | 90% | 80% |  |  |  |  | 
O=[N+]([O-])CC1C(c2ccc3ccccc3n2)=CN(Cc2ccc(Cl)cc2)c2ccccc21 (centres unmarked) [Compound A08] | 40% | 30% | 40% |  |  |  |  | 
CCCCN1C=C(c2ccc3ccccc3n2)C(C)c2ccccc21 (centres unmarked) [Compound A23] | 30% | 10% | 0% |  |  |  |  | 
C[n+]1ccccc1/C=C/c1ccc(Br)cc1 [JS03] | 50% | 10% | 20% |  |  |  |  | 
CCCCCCCCC[n+]1cc(-c2ccc3ccccc3n2)cc2ccccc21 [Compound I13] | 100% | 100% | 100% |  |  |  |  | 
CCCCN1C=C(c2ccc3ccccc3n2)C(C#N)c2ccccc21 (centres unmarked) [Compound A01] | 20% | 20% | 30% |  |  |  |  | 
CCCCN1C=C(c2ccc3ccccc3n2)Cc2ccccc21 [Compound A21] | 70% | 80% | 60% |  |  |  |  | 
CCN1C=C(c2ccc3ccccc3n2)C(C[N+](=O)[O-])c2ccccc21 (centres unmarked) [Compound 2, 1-ethyl-4-(nitromethyl)-3-quinolin-2-yl-4H-quinoline] | 100% | 60% | 90% | particularly robust, dose-dependent inhibition | substantially less inhibition |  |  | 
Cc1cccc(C2=CN(Cc3ccc(Cl)cc3)c3ccccc3C2C[N+](=O)[O-])n1 (centres unmarked) [Compound A10] | 10% | 0% | 30% |  |  |  |  | 
CCOC(=O)C(C(=O)OCC)C1C(c2ccc3ccccc3n2)=CN(C)c2ccccc21 (centres unmarked) [Compound A2] | 100% | 80% | 80% |  |  |  |  | 
CN1C=C(c2ccc3ccccc3n2)C(C#N)c2ccccc21 (centres unmarked) [Compound C4] | 90% | 80% | 70% |  |  |  |  | 
CCCCCC[n+]1cc(-c2ccc3ccccc3n2)cc2ccccc21 [Compound I12] | 100% | 100% | 90% |  |  |  |  | 
C=CCCC[n+]1cc(-c2ccc3ccccc3n2)cc2ccccc21 [Compound A25] | 100% | 100% | 80% |  |  |  |  | 
CCCCN1C=C(c2cccc(C)n2)C(C#N)c2ccccc21 (centres unmarked) [Compound A03] | 0% | 10% | 40% |  |  |  |  | 
Clc1ccc(C[n+]2cc(-c3ccc4ccccc4n3)cc3ccccc32)cc1.[Br-] [Compound I01] |  |  |  |  |  | 50% | 50% | 50%
CCCCN1C=C(c2ccc3ccccc3n2)C(C[N+](=O)[O-])c2ccccc21 (centres unmarked) [Compound A07] | 90% | 90% | 90% |  |  |  |  | 
CC(C)[n+]1cc(-c2ccc3ccccc3n2)cc2ccccc21 [Compound I10] | 100% | 90% | 80% |  |  |  |  | 
CCOC(=O)CN1C=C(c2ccc3ccccc3n2)C(C[N+](=O)[O-])c2ccccc21 (centres unmarked) [Compound A3] | 10% | 30% | 0% |  |  |  |  | 
CN1C=C(c2ccc3ccccc3n2)C(C[N+](=O)[O-])c2ccccc21 (centres unmarked) [Compound E1] | 100% | 80% | 90% |  |  |  |  | 
O=[N+]([O-])CC1C(c2ccc3ccccc3n2)=CN(Cc2ccccc2)c2ccccc21 (centres unmarked) [Compound D3] | 70% | 60% | 60% |  |  |  |  | 
